Data reported in patent publication US12139487B2, “Compounds and uses thereof” (Foghorn Therapeutics Inc., priority 2022, dated 2024).

Legend:
[1] = biological target: T1, BRM (Homo sapiens, UniProt P51531); assay: ATPase catalytic activity assay (ADP-Glo), BRM; format: biochemical; conditions: Table 10; for Ratio (BRG1 IC50 (μM) divided by BRM IC50 (μM)): ATPase assay, selectivity BRG1/BRM; for IC50: ATPase catalytic activity assay (ADP-Glo)
T1 construct: made in house; host or cells: High Five insect cells
T1 sequence (P51531 whole entry): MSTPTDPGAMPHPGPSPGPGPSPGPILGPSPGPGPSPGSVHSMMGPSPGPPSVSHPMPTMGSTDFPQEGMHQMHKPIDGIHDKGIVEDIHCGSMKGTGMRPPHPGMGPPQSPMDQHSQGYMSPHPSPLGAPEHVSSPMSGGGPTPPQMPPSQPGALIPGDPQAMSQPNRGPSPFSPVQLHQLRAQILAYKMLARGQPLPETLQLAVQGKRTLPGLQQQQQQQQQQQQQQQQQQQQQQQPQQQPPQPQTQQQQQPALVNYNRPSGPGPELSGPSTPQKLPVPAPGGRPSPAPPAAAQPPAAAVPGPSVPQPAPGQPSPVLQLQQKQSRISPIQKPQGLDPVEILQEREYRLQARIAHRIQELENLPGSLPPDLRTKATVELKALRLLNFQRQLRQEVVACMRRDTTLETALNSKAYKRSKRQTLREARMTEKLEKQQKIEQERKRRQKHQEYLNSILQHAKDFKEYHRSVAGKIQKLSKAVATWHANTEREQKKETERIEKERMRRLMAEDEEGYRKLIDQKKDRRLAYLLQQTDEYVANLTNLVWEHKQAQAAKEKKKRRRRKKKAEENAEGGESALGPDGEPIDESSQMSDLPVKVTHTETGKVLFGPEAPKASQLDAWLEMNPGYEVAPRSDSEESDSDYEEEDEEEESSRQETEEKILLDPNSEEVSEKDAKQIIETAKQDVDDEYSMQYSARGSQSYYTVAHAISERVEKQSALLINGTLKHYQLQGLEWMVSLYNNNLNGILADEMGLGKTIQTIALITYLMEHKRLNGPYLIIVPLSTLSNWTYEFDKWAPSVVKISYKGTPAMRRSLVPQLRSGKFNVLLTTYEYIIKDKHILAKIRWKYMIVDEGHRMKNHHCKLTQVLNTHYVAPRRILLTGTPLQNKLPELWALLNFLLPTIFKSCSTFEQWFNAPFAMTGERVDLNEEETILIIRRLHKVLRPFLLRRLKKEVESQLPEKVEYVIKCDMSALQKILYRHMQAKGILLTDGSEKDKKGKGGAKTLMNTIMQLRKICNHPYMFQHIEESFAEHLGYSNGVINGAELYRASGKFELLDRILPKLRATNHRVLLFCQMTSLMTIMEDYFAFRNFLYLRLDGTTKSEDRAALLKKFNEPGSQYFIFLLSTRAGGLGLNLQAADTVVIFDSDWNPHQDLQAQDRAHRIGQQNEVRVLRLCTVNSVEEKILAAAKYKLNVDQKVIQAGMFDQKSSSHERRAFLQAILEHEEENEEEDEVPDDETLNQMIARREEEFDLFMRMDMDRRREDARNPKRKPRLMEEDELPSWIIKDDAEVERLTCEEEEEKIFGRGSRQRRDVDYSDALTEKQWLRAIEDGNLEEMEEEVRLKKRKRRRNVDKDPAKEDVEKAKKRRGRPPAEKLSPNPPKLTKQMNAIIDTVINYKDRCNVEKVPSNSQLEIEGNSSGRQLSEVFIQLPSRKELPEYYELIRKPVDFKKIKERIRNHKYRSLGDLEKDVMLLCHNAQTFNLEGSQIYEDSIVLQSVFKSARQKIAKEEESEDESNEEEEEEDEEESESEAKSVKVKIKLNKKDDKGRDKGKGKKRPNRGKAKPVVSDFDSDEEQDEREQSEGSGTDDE
Procedure, shortened: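 ADP-Glo luminescence measures ADP produced by BRM ATPase (30 nM) during 1 h at room temperature. ATP is 400 μM, with 20 nM salmon sperm DNA as cofactor. Buffer: 20 mM Tris pH 8, 20 mM MgCl2, 50 mM NaCl, 0.1% Tween-20, 1 mM DTT.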

[2] = biological target: T2, BRG-1 (Homo sapiens, UniProt P51532); assay: ATPase catalytic activity assay (ADP-Glo), BRG-1; format: biochemical; conditions: Table 10, read-out: BRG1 IC50
T2 construct: made in house; host or cells: High Five insect cells
T2 sequence (P51532 whole entry): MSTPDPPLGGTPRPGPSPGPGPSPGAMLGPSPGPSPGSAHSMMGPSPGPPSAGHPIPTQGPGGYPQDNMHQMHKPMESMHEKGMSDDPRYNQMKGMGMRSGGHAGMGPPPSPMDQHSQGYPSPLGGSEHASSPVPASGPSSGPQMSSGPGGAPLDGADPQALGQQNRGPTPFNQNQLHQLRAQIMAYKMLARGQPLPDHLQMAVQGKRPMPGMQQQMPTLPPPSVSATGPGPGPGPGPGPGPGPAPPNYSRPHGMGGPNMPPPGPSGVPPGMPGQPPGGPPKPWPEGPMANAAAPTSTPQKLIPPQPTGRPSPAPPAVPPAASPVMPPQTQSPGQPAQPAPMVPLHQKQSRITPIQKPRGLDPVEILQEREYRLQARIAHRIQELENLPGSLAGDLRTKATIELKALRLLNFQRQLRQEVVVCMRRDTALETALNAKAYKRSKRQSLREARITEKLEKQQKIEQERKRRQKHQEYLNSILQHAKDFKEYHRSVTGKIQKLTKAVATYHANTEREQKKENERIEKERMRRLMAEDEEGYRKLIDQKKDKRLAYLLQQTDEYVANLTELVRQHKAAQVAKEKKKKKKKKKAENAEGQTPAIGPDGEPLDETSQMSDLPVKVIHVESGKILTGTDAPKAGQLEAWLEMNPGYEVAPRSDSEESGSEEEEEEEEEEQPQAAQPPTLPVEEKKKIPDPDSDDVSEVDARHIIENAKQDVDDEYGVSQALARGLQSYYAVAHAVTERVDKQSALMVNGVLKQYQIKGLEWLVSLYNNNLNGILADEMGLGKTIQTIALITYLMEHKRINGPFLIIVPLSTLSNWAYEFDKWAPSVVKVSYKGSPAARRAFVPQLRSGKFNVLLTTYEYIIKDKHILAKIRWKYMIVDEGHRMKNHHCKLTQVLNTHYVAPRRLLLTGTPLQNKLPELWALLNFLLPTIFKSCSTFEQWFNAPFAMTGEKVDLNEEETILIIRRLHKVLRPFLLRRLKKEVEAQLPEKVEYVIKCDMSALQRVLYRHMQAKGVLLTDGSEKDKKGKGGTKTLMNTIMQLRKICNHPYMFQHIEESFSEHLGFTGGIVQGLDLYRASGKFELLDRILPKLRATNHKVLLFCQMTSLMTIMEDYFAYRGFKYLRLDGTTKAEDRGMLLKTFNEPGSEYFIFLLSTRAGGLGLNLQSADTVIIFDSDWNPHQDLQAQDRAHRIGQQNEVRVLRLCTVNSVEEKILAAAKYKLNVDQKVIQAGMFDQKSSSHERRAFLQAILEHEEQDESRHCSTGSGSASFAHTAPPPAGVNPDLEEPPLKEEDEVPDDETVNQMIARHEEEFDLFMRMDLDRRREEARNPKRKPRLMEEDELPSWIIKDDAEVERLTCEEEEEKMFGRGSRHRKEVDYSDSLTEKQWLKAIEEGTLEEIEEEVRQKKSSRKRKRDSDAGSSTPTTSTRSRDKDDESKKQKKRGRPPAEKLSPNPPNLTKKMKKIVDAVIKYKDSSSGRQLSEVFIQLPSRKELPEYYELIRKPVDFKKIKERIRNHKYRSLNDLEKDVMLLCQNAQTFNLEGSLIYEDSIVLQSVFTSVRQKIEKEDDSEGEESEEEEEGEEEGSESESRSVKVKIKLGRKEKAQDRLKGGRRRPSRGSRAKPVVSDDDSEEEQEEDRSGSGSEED
Procedure, shortened: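 ADP produced by BRG-1 was quantified by luciferase luminescence. A 60 min room-temperature ADP-to-ATP conversion followed a 40 min ATP-depletion step.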

Structure (SMILES)	Ratio (BRG1 IC50 (μM) divided by BRM IC50 (μM)) [1]	IC50 [1]	IC50 [2]
O=C(NCc1cc2nc(N3CCOc4ccc(N5CC[C@@H](F)C5)nc43)ccc2cn1)c1cc(F)c2c(c1)S(=O)(=O)[C@@H](F)CCO2 [Compound 86]	17.70	0.0032 µM	0.0512 µM
O=C(NCc1cc2nc(N3CCOc4cc([C@@H]5CC5(F)F)cnc43)ccc2cn1)c1cc(F)c2c(c1)S(=O)(=O)[C@@H](F)CCO2 [Compound 87]	20.66	0.0032 µM	0.0783 µM
O=C(NCc1cc2nc(N3CCOc4ccc([C@H]5C[C@H]5F)nc43)ccc2cn1)c1cc(F)c2c(c1)S(=O)(=O)[C@@H](F)COC2 [Compound 88]	21.33	0.0032 µM	0.0889 µM
O=C(NCc1cc2nc(-c3ccc(OC(F)F)c(C4CC4)n3)ccc2cn1)c1cc(F)c2c(c1)S(=O)(=O)[C@@H](F)CCO2 [Compound 89]	28.75	0.0032 µM	0.132 µM
[2H]C1([2H])Oc2c(F)cc(C(=O)NCc3cc4nc(N5CCOc6cc(C7CC7)cnc65)ccc4cn3)cc2S(=O)(=O)[C@]([2H])(F)C1([2H])[2H] [Compound 90]	15.80	0.0032 µM	0.0512 µM
CCOc1cc(C(F)F)nc2c1OCCN2c1ccc2cnc(CNC(=O)c3cc(F)c4c(c3)S(=O)(=O)[C@@H](F)CCO4)cc2n1 [Compound 91]	14.38	0.0032 µM	0.0467 µM
O=C(NCc1cc2nc(N3CCOc4ccc(C5CC5)nc43)ccc2cn1)c1ccc2c(c1)S(=O)(=O)[C@@H](F)CCO2 [Compound 96]	22.86	0.0034 µM	0.0864 µM
COc1nc([C@H](F)CF)ccc1-c1ccc2cnc(CNC(=O)c3cc(F)c4c(c3)S(=O)(=O)[C@@H](F)CCO4)cc2n1 [Compound 98]	31.77	0.0035 µM	0.123 µM
CO[C@@H]1CN(c2cccc(-c3ccc4cnc(CNC(=O)c5cc(F)c6c(c5)S(=O)(=O)[C@@H](F)CCO6)cc4n3)n2)C[C@H]1C [Compound 104]	10.21	0.0036 µM	0.0427 µM
CCOCc1ccnc2c1OCCN2c1ccc2cnc(CNC(=O)c3cc(F)c4c(c3)S(=O)(=O)[C@@H](F)CCO4)cc2n1 [Compound 108]	16.69	0.0039 µM	0.0644 µM
O=C(NCc1cc2nc(N3CCOc4cc(N5CC[C@H](F)[C@@H](F)C5)cnc43)ccc2cn1)c1cc(F)c2c(c1)S(=O)(=O)[C@@H](F)CCO2 [Compound 109]	17.52	0.0039 µM	0.0872 µM
C#Cc1ccc2c(n1)N(c1ccc3cnc(CNC(=O)c4cc(F)c5c(c4)S(=O)(=O)[C@@H](F)CCO5)cc3n1)CCO2 [Compound 110]	15.35	0.0039 µM	0.0694 µM
O=C(NCc1cc2nc(N3CCOc4c(OCC5CC5)ccnc43)ccc2cn1)c1cc(F)c2c(c1)S(=O)(=O)[C@@H](F)CCO2 [Compound 113]	21.12	0.004 µM	0.0839 µM
O=C(NCc1cc2nc(N3CCOc4cc([C@H]5CC5(F)F)cnc43)ccc2cn1)c1cc(F)c2c(c1)S(=O)(=O)[C@@H](F)COC2 [Compound 116]	12.04	0.004 µM	0.0483 µM
O=C(NCc1cc2nc(-c3cccc(N4CCC4)n3)ccc2cn1)c1cc(F)c2c(c1)S(=O)(=O)[C@@H](F)CCO2 [Compound 117]	21.61	0.004 µM	0.0871 µM
O=C(NCc1cc2cc(-c3cccc(C4CC4)n3)ccc2cn1)c1cc(F)c2c(c1)S(=O)(=O)[C@@H](F)COC2 [Compound 118]	19.47	0.004 µM	0.063 µM
Cc1ccc(-c2ccc3cnc(CNC(=O)c4cc(F)c5c(c4)S(=O)(=O)[C@@H](F)CCO5)cc3n2)c(OC(F)F)n1 [Compound 120]	24.03	0.0041 µM	0.0983 µM
CCOc1ccnc2c1OCCN2c1ccc2cnc(CNC(=O)c3cc(F)c4c(c3)S(=O)(=O)[C@@H](F)CCO4)cc2n1 [Compound 129]	18.60	0.0045 µM	0.111 µM
O=C(NCc1cc2nc(N3CCOc4ccc([C@H]5C[C@@H]5F)nc43)ccc2cn1)c1cc(F)c2c(c1)S(=O)(=O)[C@@H](F)COC2 [Compound 132]	17.90	0.0045 µM	0.0772 µM
COc1cnc2c(c1)CCCN2c1ccc2cnc(CNC(=O)c3cc(F)c4c(c3)S(=O)(=O)[C@@H](F)CCO4)cc2n1 [Compound 133]	18.45	0.0045 µM	0.0942 µM

More lines, in order of falling IC50 [1], values ahead:

Ratio (BRG1 IC50 (μM) divided by BRM IC50 (μM)) [1]	IC50 [1]	IC50 [2]	Structure (SMILES)
15.94	0.0045 µM	0.0711 µM	O=C(NCc1cc2nc(N3CCOc4cc(C56CC(C5)C6)cnc43)ccc2cn1)c1cc(F)c2c(c1)S(=O)(=O)[C@@H](F)CCO2 [Compound 130]
17.91	0.0045 µM	0.0708 µM	COc1nc(C(F)F)ccc1-c1ccc2cnc(CNC(=O)c3cc(C)c4c(c3)S(=O)(=O)[C@@H](F)COC4)cc2n1 [Compound 131]
15.93	0.0043 µM	0.0749 µM	O=C(NCc1cc2nc(N3CCOc4cc(N5C[C@@H](F)[C@@H](F)C5)cnc43)ccc2cn1)c1cc(F)c2c(c1)S(=O)(=O)[C@@H](F)CCO2 [Compound 124]
19.09	0.0043 µM	0.0815 µM	O=C(NCc1cc2nc(N3CCOc4ccc([C@H]5C[C@@H]5C(F)F)nc43)ccc2cn1)c1cc(F)c2c(c1)S(=O)(=O)[C@@H](F)CCO2 [Compound 125]
10.93	0.0042 µM	0.0459 µM	COc1nc(C(F)F)ccc1-c1ccc2cnc([C@H](C)NC(=O)c3ccc4c(c3)S(=O)(=O)[C@@H](F)CCOC4)cc2n1 [Compound 122]
12.84	0.0042 µM	0.0506 µM	O=C(NCc1cc2nc(N3CCOc4ccc([C@@H]5C[C@H]5C(F)F)nc43)ccc2cn1)c1cc(F)c2c(c1)S(=O)(=O)[C@@H](F)CCO2 [Compound 123]
10.33	0.0041 µM	0.0422 µM	O=C(NCc1cc2nc(N3CCOc4ccc(N5CCC(F)(F)C5)nc43)ccc2cn1)c1cc(F)c2c(c1)S(=O)(=O)[C@@H](F)CCO2 [Compound 119]
13.86	0.0041 µM	0.0567 µM	O=C(NCc1cc2nc(N3CCOc4cc(N5C[C@@H](F)[C@H](F)C5)cnc43)ccc2cn1)c1cc(Cl)c2c(c1)S(=O)(=O)[C@@H](F)COC2 [Compound 121]
29.13	0.004 µM	0.118 µM	O=C(NCc1cc2nc(-c3cccc(C4CC4)n3)ccc2cn1)c1cc(F)c2c(c1)S(=O)(=O)[C@@H](F)COC2 [Compound 114]
22.17	0.004 µM	0.105 µM	C[C@@H]1C[C@H]1c1cnc2c(c1)OCCN2c1ccc2cnc(CNC(=O)c3cc(F)c4c(c3)S(=O)(=O)[C@@H](F)CCO4)cc2n1 [Compound 115]
19.81	0.0039 µM	0.0791 µM	O=C(NCc1cc2nc(-c3cccc(N4CCC4)n3)ccc2cn1)c1cc(F)c2c(c1)S(=O)(=O)[C@@H](F)COC2 [Compound 111]
14.50	0.0039 µM	0.0572 µM	O=C(NCc1cc2nc(N3CCOc4cc(N5CC[C@H](F)[C@@H](F)C5)cnc43)ccc2cn1)c1cc(Cl)c2c(c1)S(=O)(=O)[C@@H](F)COC2 [Compound 112]
9.68	0.0037 µM	0.0367 µM	CN(CC(F)F)c1cnc2c(c1)OCCN2c1ccc2cnc(CNC(=O)c3cc(F)c4c(c3)S(=O)(=O)[C@@H](F)CCO4)cc2n1 [Compound 105]
26.75	0.0036 µM	0.0954 µM	O=C(NCc1cc2nc(N3CCOc4cc(F)cnc43)ccc2cn1)c1cc(F)c2c(c1)S(=O)(=O)[C@@H](F)CCO2 [Compound 102]
12.05	0.0036 µM	0.0434 µM	[2H]C([2H])([2H])Oc1nc(C(F)F)ccc1-c1ccc2cnc(CNC(=O)c3cc(F)c4c(c3)S(=O)(=O)[C@@H](F)COC4)cc2n1 [Compound 103]
12.19	0.0035 µM	0.0427 µM	CCN(CC)c1cnc2c(c1)OCCN2c1ccc2cnc(CNC(=O)c3cc(F)c4c(c3)S(=O)(=O)[C@@H](F)CCO4)cc2n1 [Compound 99]
13.01	0.0035 µM	0.0448 µM	Cc1cc(C(=O)NCc2cc3nc(-c4cccc(N5C[C@@H](C)O[C@@H](C)C5)n4)ccc3cn2)cc2c1OCC[C@H](F)S2(=O)=O [Compound 100]
23.62	0.0035 µM	0.0834 µM	O=C(NCc1cc2cc(-c3cncc(N4CCCC4)n3)ccc2cn1)c1cc(F)c2c(c1)S(=O)(=O)[C@@H](F)CCO2 [Compound 101]
17.66	0.0034 µM	0.0657 µM	CO[C@H]1CN(c2cccc(-c3ccc4cnc(CNC(=O)c5cc(F)c6c(c5)S(=O)(=O)[C@@H](F)CCO6)cc4n3)n2)C[C@@H]1F [Compound 97]
